Measurements: patent US8440707B2, “Antagonists of lysophosphatidic acid receptors” (Amira Pharmaceuticals, Inc., priority 2008, dated 2013)

Legend:
[1] = tested on: renal fibrosis; settings: compared with LPA1 (−/−) mice, in which renal fibrosis was significantly attenuated; cited from earlier work
[2] = tested on: pancreatic cancer cell lines; settings: cited from earlier work
[3] = tested on: highly peritoneal metastatic pancreatic cancer cell line; settings: cited from earlier work
[4] = tested on: bone metastasis; settings: cited from earlier work
[5] = tested on: bleomycin-induced lung fibrosis; experiment: Bleomycin-induced lung fibrosis model in mice; format: in vivo
From the text: Female CD-1 mice (Harlan, 25-30 g) are housed 4 per cage, given free access to food and water and allowed to acclimate for at least 7 days prior to test initiation. After the habituation phase, mice are lightly anesthetized with isoflurane (5% in 100% O2) and administered with bleomycin sulfate (0.01-5 U/kg, Henry Schein) via intratracheal instillation (Cuzzocrea S et al. Am J Physiol Lung Cell Mol. Physiol. 2007 May; 292(5):[…]-104. Epub 2007 Jan. 12). Mice are returned to their cages and monitored daily for the duration of the experiment. Test compound or vehicle is delivered po, ip or sc daily. The route and frequency of dosing is based on previously determined pharmacokinetic properties. All animals are sacrificed using inhaled isoflurane 3, 7, 14, 21 or 28 days after bleomycin instillation. Following sacrifice, mice are intubated with a 20 gauge angiocatheter attached to a 1 ml syringe. Lungs are lavaged with saline to obtain bronchoalveolar lavage fluid (BALF) and then removed and fixed in 10% neutral buffered formalin for subsequent histopathological analysis. BALF is centrifuged for 10 min at 800×g to pellet the cells and the cell supernatant removed and frozen at -80° C. for subsequent protein analysis using the DC protein assay kit (Biorad, Hercules, Calif.) and soluble collagen analysis using Sircol (Biocolor Ltd, UK). BALF is analyzed for concentrations of inflammatory, pro-fibrotic and tissue injury biomarkers including transforming growth factor β1, hyaluronic acid, tissue inhibitor of metalloproteinase-1, matrix matelloproteinase-7, connective tissue growth factor and lactate dehydrogenase activity, using commercially available ELISA. The cell pellet is re-suspended in PBS. Total cell counts are then obtained using a Hemavet hematology system (Drew Scientific, Wayne, Pa.) and differential cells counts are determined using Shandon cytospin (Thermo Scientific, Waltham, Mass.). Lung tissue is stained using hematoxylin and eosin (H&E) and trichrome and lung fibrosis is determined by semiquantitative histopathological scoring (Ashcroft T. et al. J. Clin. Path. 1988; 41; 4, 467-470) using light microscopy (10× magnification) and quantitative, computer-assisted densitometry of collagen in lung tissue sections using light microscopy. The data are plotted using Graphpad prism and statistical differences between groups determined.

[6] = tested on: CCl4-induced liver fibrosis; experiment: Mouse carbon tetrachloride (CCl4)-induced liver fibrosis model; format: in vivo; settings: for collagen deposition in the liver: as compared to the untreated group
Method: Female C57BL/6 mice (Harlan, 20-25 g) housed 4/cage are given free access to food and water and allowed to acclimate for at least 7 days prior to test initiation. After the habituation phase, mice receive CCl4 (0.5-1.0 ml/kg body weight) diluted in corn oil vehicle (100 μL volume) via i.p. injection twice a week for 4-6 weeks. (Higazi, A. A. et al., Clin Exp Immunol. 2008 April; 152(1):163-73. Epub 2008 Feb. 14). Control mice receive an equivalent volume of corn oil vehicle only. Test compound or vehicle is delivered po, ip or sc daily. At the end of the study (4-6 weeks after first i.p. injection of CCl4), mice are sacrificed using inhaled isoflurane and blood is drawn via cardiac puncture for subsequent analysis of ALT/AST levels. The liver is harvested, and one half of the liver is frozen at −80° C. and the other half is fixed in 10% neutral buffered formalin for histological assessment of liver fibrosis using light microscopy (10× magnification). Liver tissue homogenates are analyzed for collagen levels using Sircol (Biocolor Ltd, UK). Fixed Liver tissue is stained using hematoxylin and eosin (H&E) and trichrome and liver fibrosis is determined by quantitative, computer-assisted densitometry of collagen in liver tissue sections using light microscopy. Plasma and liver tissue lysates are also analyzed for concentrations of inflammatory, pro-fibrotic and tissue injury biomarkers including transforming growth factor β1, hyaluronic acid, tissue inhibitor of metalloproteinase-1, matrix matelloproteinase-7, connective tissue growth factor and lactate dehydrogenase activity, using commercially available ELISA. The resulting data are plotted using Graphpad prism and statistical differences between groups determined.

[7] = chronic setting (14-days only), single bleomycin instillation (3.0 units)
[8] = chronic setting (14 and 28 day), single bleomycin (1.5 units/kg) instillation
[9] = chronic setting, repeated bleomycin (3.0-5.0 units/kg/week) instillations

Cc1noc(-c2ccc(CSCCC(=O)O)cc2)c1NC(=O)OC(C)c1ccccc1Cl (centres unmarked) [Ki16425]
development of renal fibrosis in UUO mice [1]: closely resembled the LPA1 (−/−) mice
in vitro migration in response to LPA and peritoneal fluid (ascites) from pancreatic cancer patients [2]: effectively blocked
LPA-induced and ascites-induced invasion activity [3]: blocked
metastasis to bone in vivo [4]: inhibit

Cc1noc(-c2ccc(-c3ccc(CC(=O)O)cc3)cc2)c1NC(=O)O[C@H](C)c1ccccc1 [Compound 37, {4′-[3-Methyl-4-((R)-1-phenyl-ethoxycarbonylamino)-isoxazol-5-yl]-biphenyl-4-yl}-acetic acid]
lactate in the BALF ([5]; acute setting (3-day)): reduced
tissue inhibitor of metalloproteinase-1 (TIMP-1; pro-fibrotic marker) concentrations in BALF ([5]; acute setting (3 day)): reduced
total protein in broncheoalveolar lavage fluid (BALF) ([5]; acute setting (3 day)): reduced
fibrosis [5, 7]: decreased
inflammatory cell influx [5, 7]: decreased
collagen deposition in the liver [6]: significantly reduced

Cc1noc(-c2ccc(-c3ccc(CC(=O)O)cc3)cc2)c1NC(=O)O[C@H](C)c1ccccc1Cl [Compound 27, (4′-{4-[(R)-1-(2-Chloro-phenyl)-ethoxycarbonylamino]-3-methyl-isoxazol-5-yl}-biphenyl-4-yl)-acetic acid]
lactate dehydrogenase activity (LDH; tissue injury marker) in BALF ([5]; acute setting (3 day)): significantly reduced
tissue inhibitor of metalloproteinase-1 (TIMP-1; pro-fibrotic marker) concentrations in BALF ([5]; acute setting (3 day)): significantly reduced
total protein in broncheoalveolar lavage fluid (BALF) ([5]; acute setting (3 day)): significantly reduced
fibrosis [5, 8]: decreased
inflammatory cell influx [5, 8]: decreased
mouse body weight [5, 8]: maintained
lung fibrosis [5, 9]: decreased
pulmonary resistance [5, 9]: decreased
effect on collagen deposition compared with pirfenidone ([6]; 30 mg/kg, po, qd): same effect
collagen deposition in the liver [6]: significantly reduced
